Key:
HIV-1 protease = HIV-1 protease (Human immunodeficiency virus type 1 group M subtype B, UniProt P04585); assay: HIV protease inhibition assay (quenched fluorogenic substrate, fluorescence energy transfer)
HIV-HXB2 = assay: Antiviral assay: protection of HIV-infected MT4 cells from cell death (MTT); format: cell-based; conditions: Human immunodeficiency virus 1, 120 h; MT4 cells infected with HIV-HXB2; 5 days; MTT viability; rounded to nearest whole number
Protocol: Methods 20: 309-321]. The method is based on the ability of compounds to protect HIV-infected T lymphoblastoid cells (MT4 cells) from cell-death mediated by the infection. The endpoint of the assay was calculated as the concentration of compound at which the cell viability of the culture was preserved by 50% (‘50% inhibitory concentration’, IC50). The cell viability of a culture was determined by the uptake of soluble, yellow 3-[4,5-dimethylthiazol-2-yl]-2,5-diphenyltetrazolium bromide (MTT) and its reduction to a purple insoluble formazan salt. After solubilization, spectrophotometric methods were employed to measure the amount of formazan product.
MT4 cells were prepared to be in logarithmic-phase growth and a total of 2×10^6 cells infected with either the wild type or site directed mutant clones of HIV-HXB2 at a multiplicity of approximately 0.0001 infectious units of virus per cell in a total volume of between 200-500 μl. The cells were incubated with virus for one hour at 37° C. then washed in 0.01 M phosphate buffered saline, pH 7.2, and resuspensed in culture medium for incubation in culture with serial dilutions of test compound. The culture medium used was RPMI 1640 without phenol red, supplemented with penicillin, streptomycin, L-glutamine and 10% fetal calf serum (GM10).
Test compounds were prepared as 2 mM solutions in dimethyl sulphoxide (DMSO). Four replicate, serial 2-fold dilutions in GM10 were then prepared and 50 microliter amounts placed in 96-well plates over a final concentration range of […]. Fifty microliters GM10 and 3.75×10^4 infected cells were then added to each well. Control cultures containing no cells (blank), uninfected cells (100% viability; 4 replicates) and infected cells without compound (total virus-mediated cell death; 4 replicates) were also prepared. The cultures were then incubated at 37° C. in a humidified atmosphere of 5% CO2 in air for 5 days.
A fresh solution of 5 mg/mL MTT was prepared in 0.01 M phosphate buffered saline, pH 7.2 and 20 μL added to each culture. The cultures were further incubated as before for 2 hours. They were then mixed by pipetting up and down, and 170 microliters of Triton X-100 in acidified isopropanol (10% v/v Triton X-100 in 1:250 mixture of concentrated HCl in isopropanol) were added and the cultures were mixed again by pipetting up and down. When the formazan deposit was fully solubilized by further mixing, the absorbance (OD) of the cultures was measured at 540 nm and 690 nm wavelength (690 nm readings were used as blanks for artefacts between wells). The percent protection for each treated culture was then calculated from the equation:
OD drug-treated cultures)−(OD untreated virus control cultures) % Protection=100%
(OD uninfected cultures)−(OD untreated virus control cultures)
The IC50 was then obtained from graph plots of percentage protection versus log10 drug concentration.

melting point | SMILES | IC50 (HIV-1 protease) | IC50 (HIV-HXB2)
 | CC(C)(C)NC(=O)[C@@H]1C[C@@H]2CCCC[C@@H]2CN1C[C@@H](O)[C@H](Cc1ccccc1)NC(=O)[C@@H](NCc1ccccc1)C(C)(C)S(C)(=O)=O [Example 112, 2-[3(S)-[[N-Benzyl-3-(methanesulfonyl)-L-valyl]amino]-2(R)-hydroxy-4-phenylbutyl]-N-tert-butyl-1,2,3,4,4a(S),5,6,7,8,8a(S)-decahydro-3(S)-isoquinolinecarboxamide] | 7.5 nM | 94 nM
 | CC(C)(C)NC(=O)[C@@H]1C[C@@H]2CCCC[C@@H]2CN1C[C@@H](O)[C@H](Cc1ccccc1)NC(=O)[C@@H](NC(=O)N1CCOCC1)C(C)(C)S(C)(=O)=O [Example 106, N-tert-Butyl-1,2,3,4,4a(S),5,6,7,8,8a(S)-decahydro-2-[2(R)-hydroxy-3(S)-[[3-(methanesulfonyl)-N-(morpholinocarbonyl)-L-valyl]amino]-4 phenylbutyl]-3(S)-isoquinolinecarboxamide] | 10.7 nM | 60 nM
228 to 230 °C | CC(C)(C)NC(=O)[C@@H]1C[C@@H]2CCCC[C@@H]2CN1C[C@@H](O)[C@H](Cc1ccccc1)NC(=O)[C@@H](n1cc[nH]c1=O)C(C)(C)S(C)(=O)=O |  | 
 | CC(C)(C)NC(=O)[C@@H]1C[C@@H]2CCCC[C@@H]2CN1C[C@@H](O)[C@H](Cc1ccccc1)NC(=O)[C@@H](NC(=O)NCc1ccccc1)C(C)(C)S(C)(=O)=O [Example 168, 2-[3(S)-[[N-(Benzylcarbamoyl)-3-(methanesulfonyl)-L-valyl]amino]-2(R)-hydroxy-4-phenylbutyl]-N-tert-butyl-1,2,3,4,4a(S),5,6,7,8,8a(S)-decahydro-3(S)-isoquinolinecarboxamide] | 0.5 nM | 16 nM
 | Cc1csc(N[C@H](C(=O)N[C@@H](Cc2ccccc2)[C@H](O)CN2C[C@H]3CCCC[C@H]3C[C@H]2C(=O)NC(C)(C)C)C(C)(C)S(C)(=O)=O)n1 [Example 138, N-tert-Butyl-1,2,3,4,4a(S),5,6,7,8,8a(S)-decahydro-2-[2(R)-hydroxy-3(S)-[[3-(methanesulfonyl)-N-(4-methyl-2-thiazolyl)-L-valyl]amino]-4-phenylbutyl]-3(S)-isoquinolinecarboxamide] | 7.8 nM | 65 nM
 | CC(C)NCC(=O)N[C@H](C(=O)N[C@@H](Cc1ccccc1)[C@H](O)CN1C[C@H]2CCCC[C@H]2C[C@H]1C(=O)NC(C)(C)C)C(C)(C)S(C)(=O)=O [Example 92, N-tert-Butyl-1,2,3,4,4a(S),5,6,7,8,8a(S)-decahydro-2-[2(R)-hydroxy-3(S)-[[N-[2-(isopropylamino)acetyl]-3-(methanesulfonyl)-L-valyl]amino]-4-phenylbutyl]-3(S)-isoquinolinecarboxamide] | 4 nM | 33 nM
126 °C | CC(C)(C)NC(=O)[C@@H]1C[C@@H]2CCCC[C@@H]2CN1C[C@@H](O)[C@H](Cc1ccccc1)NC(=O)[C@@H](Nc1nc(CO)cs1)C(C)(C)S(C)(=O)=O |  | 
 | CC(C)(C)NC(=O)[C@@H]1C[C@@H]2CCCC[C@@H]2CN1C[C@@H](O)[C@H](Cc1ccccc1)NC(=O)[C@@H](NC(=O)COc1ccccn1)C(C)(C)S(C)(=O)=O [Example 152] | 1.2 nM | 17 nM
 | CN(Cc1cccnc1)C(=O)N[C@H](C(=O)N[C@@H](Cc1ccccc1)[C@H](O)CN1C[C@H]2CCCC[C@H]2C[C@H]1C(=O)NC(C)(C)C)C(C)(C)S(C)(=O)=O [Example 170, N-tert-Butyl-1,2,3,4,4a(S),5,6,7,8,8a(S)-decahydro-2-[2(R)-hydroxy-3(S)-[[3-(methanesulfonyl)-N-[N-methyl-N-[(3-pyridyl)methyl]carbamoyl]-L-valyl]amino]-4-phenylbutyl]-3(S)-isoquinolinecarboxamide] | 1 nM | 13 nM
 | CC(C)(C)NC(=O)[C@@H]1C[C@@H]2CCCC[C@@H]2CN1C[C@@H](O)[C@H](Cc1ccccc1)NC(=O)[C@@H](NC(=O)c1cccnc1)C(C)(C)S(C)(=O)=O [Example 7, N-tert-butyl-1,2,3,4,4a(S),5,6,7,8,8a(S)-decahydro-2-[2(R)-hydroxy-3(S)-[[3-(methanesulfonyl)-N-[(3-pyridyl)carbonyl]-L-valyl]amino]-4-phenylbutyl]-3(S)-isoquinolinecarboxamide] | 2.3 nM | 21 nM
 | CC(C)(C)NC(=O)[C@@H]1C[C@@H]2CCCC[C@@H]2CN1C[C@@H](O)[C@H](Cc1ccccc1)NC(=O)[C@@H](NC(=O)c1ccc(Cl)nc1)C(C)(C)S(C)(=O)=O [Example 16, N-tert-Butyl-2-[3-(S)-[[N-[(6-chloro-3-pyridyl)carbonyl]-3-(methanesulfonyl)-L-valyl]amino]-2(R)-hydroxy-4-phenylbutyl]-1,2,3,4,4a(S),5,6,7,8,8a(S)-decahydro-3(S)-isoquinolinecarboxamide] | 1 nM | 12 nM
 | CC(C)(C)NC(=O)[C@@H]1C[C@@H]2CCCC[C@@H]2CN1C[C@@H](O)[C@H](Cc1ccccc1)NC(=O)[C@@H](NC(=O)COc1cccnc1)C(C)(C)S(C)(=O)=O [Example 3, N-tert-butyl-1,2,3,4,4a(S),5,6,7,8a(S)-decahydro-2-[2(R)-hydroxy-3(S)-[[3-(methanesulfonyl)-N-[2-(3-pyridyloxy)acetyl]-L-valyl]amino]-4-phenylbutyl]-3(S)-isoquinolinecarboxamide] | 0.6 nM | 17 nM
197 to 199 °C | CC(C)(C)NC(=O)[C@@H]1C[C@@H]2CCCC[C@@H]2CN1C[C@@H](O)[C@H](Cc1ccccc1)NC(=O)[C@@H](NC(=O)COc1cccc(F)c1)C(C)(C)S(C)(=O)=O |  | 
 | CC(C)(C)NC(=O)[C@@H]1C[C@@H]2CCCC[C@@H]2CN1C[C@@H](O)[C@H](Cc1ccccc1)NC(=O)[C@@H](NC(=O)CNc1ccccc1)C(C)(C)S(C)(=O)=O [Example 93, N-tert-Butyl-1,2,3,4,4a(S),5,6,7,8,8a(S)-decahydro-2-[2(R)-hydroxy-3(S)-[3-(methanesulfonyl)-N-(N-phenylglycyl)-L-valyl]amino]-4-phenylbutyl-3(S)-isoquinolinecarboxamide] | 0.5 nM | 8 nM
 | CC(C)(C)NC(=O)[C@@H]1C[C@@H]2CCCC[C@@H]2CN1C[C@@H](O)[C@H](Cc1ccccc1)NC(=O)[C@@H](NC(=O)c1ccoc1)C(C)(C)S(C)(=O)=O [Example 28, N-tert-Butyl-2-[3-(S)-[[N-(3-furoyl)-3-(methanesulfonyl)-L-valyl]amino]-2(R)-hydroxy-4-phenylbutyl]-1,2,3,4,4a(S),5,6,7,8,8a(S)-decahydro-3(S)-isoquinolinecarboxamide] | 1 nM | 21 nM
 | CC(C)(C)NC(=O)[C@@H]1C[C@@H]2CCCC[C@@H]2CN1C[C@@H](O)[C@H](Cc1ccccc1)NC(=O)[C@@H](NC(=O)COc1cccnn1)C(C)(C)S(C)(=O)=O [Example 154] | 0.5 nM | 16 nM
135 to 160 °C | CC(C)(C)NC(=O)[C@@H]1C[C@@H]2CCCC[C@@H]2CN1C[C@@H](O)[C@H](Cc1ccccc1)NC(=O)[C@@H](NS(C)(=O)=O)C(C)(C)S(C)(=O)=O |  | 
 | CC(C)(C)NC(=O)[C@@H]1C[C@@H]2CCCC[C@@H]2CN1C[C@@H](O)[C@H](Cc1ccccc1)NC(=O)[C@@H](NC(=O)c1cccc(F)c1)C(C)(C)S(C)(=O)=O [Example 40, N-tert-Butyl-2-[3-(S)-[[N-(3-fluorobenzoyl)-3-(methanesulfonyl)-L-valyl]amino]-2(R)-hydroxy-4-phenylbutyl]-1,2,3,4,4a(S),5,6,7,8,8a(S)-decahydro-3(S)-isoquinolinecarboxamide] | 1.4 nM | 19 nM

SMILES | melting point | IC50 (HIV-1 protease) | IC50 (HIV-HXB2)
CC(C)(C)NC(=O)[C@@H]1C[C@@H]2CCCC[C@@H]2CN1C[C@@H](O)[C@H](Cc1ccccc1)NC(=O)CC(C)(C)S(C)(=O)=O [Example 95, N-tert-Butyl-1,2,3,4,4a(S),5,6,7,8,8a(S)-decahydro-1-[2(R)-hydroxy-3(S)-[3-(methanesulfonyl)butyramido]-4-phenylbutyl]-2(S)-piperazinecarboxamide] | 95 to 110 °C | 61 nM | 250 nM

— patent US6472404B1 (priority 2000, dated 2002)
